Test results published in the NIST ThermoML archive (doi:10.1016/j.fluid.2005.08.006).
Numbers after ± are expanded uncertainties.

Assay: refractive index (Na D-line) (dimensionless)
Conditions: 293.15 K; 101.33 kPa; Liquid; Standard Abbe refractometry

refractive index | Compound
1.3933 ± 0.0007 | CC(C)C(=O)O [2-methylpropanoic acid]
1.4265 ± 0.0007 | C1CCCCC1 [cyclohexane]
1.4105 ± 0.0007 | CCCCCCCCCC [decane]
1.3612 ± 0.0007 | CCO [ethanol]
1.3749 ± 0.0007 | CCCCCC [hexane]
1.4087 ± 0.0007 | CCCCC(=O)O [pentanoic acid]
1.381 ± 0.0007 | CCC(=O)O [propanoic acid]
